# How the values were obtained:
# [1] = Resistance index, ratio of IC50 for human Hela-beta3 cells to IC50 for human HeLa cells; format: functional
# HeLa [2] = test: Cytotoxicity against human HeLa cells assessed as decrease in cell viability after 48 hrs by MTT assay; format: functional, cell-based
# [3] = Cytotoxicity against human Hela-beta3 cells assessed as decrease in cell viability after 48 hrs by MTT assay; format: functional, cell-based
# Bos taurus [4] = species: Bos taurus; test: Induction of calf brain microtubule assembly assessed as concentration of unassembled tubulin at 25 uM incubated for 45 mins by spectrophotometric method (reference value: >20 uM)
# A2780 = test: Cytotoxicity against human A2780 cells assessed as decrease in cell viability after 48 hrs by MTT assay; format: functional, cell-based; details: A2780, 48 h
# [5] = Resistance index, ratio of IC50 for human A2780AD cells to IC50 for human A2780 cells; format: functional
# [6] = Cell cycle arrest in human Hela-beta3 cells assessed as concentration at which maximal accumulation at G2/M phase after 20 hrs by propidium iodide staining-based flow cytometric method; format: functional
# Bos taurus [7] = species: Bos taurus; test: Displacement of Flutax-2 from calf brain microtubule after 20 mins by fluorescence polarization assay relative to paclitaxel
# [8] = Resistance index, ratio of IC50 for human KBV1 cells to IC50 for human KB cells; format: functional
# HeLa [9] = test: Cell cycle arrest in human HeLa cells assessed as concentration at which maximal accumulation at G2/M phase after 20 hrs by propidium iodide staining-based flow cytometric method; format: functional
# KB = test: Cytotoxicity against human KB cells assessed as decrease in cell viability after 48 hrs by MTT assay; format: functional, cell-based
# [10] = Cytotoxicity against human A2780AD cells assessed as decrease in cell viability after 48 hrs by MTT assay; format: functional, cell-based
# KB-V1 = test: Cytotoxicity against human KBV1 cells assessed as decrease in cell viability after 48 hrs by MTT assay; format: functional, cell-based; details: KB-V1, 48 h
# [11] = Potency index, ratio of paclitaxel IC50 to test compound IC50 for human A2780AD cells; format: functional
# HeLa [12] = test: Ratio of IC50 for human HeLa cells harboring beta-3 tubulin siRNA to IC50 for human HeLa cells; format: functional
# [13] = Cytotoxicity against human Hela-beta3 cells assessed as decrease in cell viability after 48 hrs in presence of beta-3 tubulin siRNA by MTT assay; format: functional, cell-based
SMILES,Unassembled tubulin concentration (Bos taurus [4]) [µM],fold change (FC) (Bos taurus [7]),Ratio IC50 [1],IC50 (HeLa [2]) [nM],IC50 [3] [nM],IC50 (A2780) [nM],Ratio IC50 [5],Activity [6] [nM],Ratio IC50 [8],Activity (HeLa [9]) [nM],IC50 (KB) [nM],IC50 [10] [nM],IC50 (KB-V1) [nM],Ratio IC50 [11],Ratio IC50 (HeLa [12]),IC50 [13] [nM]
COCC[C@H]1OC[C@@]1(OC(C)=O)[C@@H]1/C(C)=C(/O)C(=O)C2=C(C)[C@@H](OC(=O)[C@H](O)[C@@H](NC(=O)c3ccccc3)c3ccccc3)C[C@@](O)([C@H]1OC(=O)c1ccccc1)C2(C)C,,,7.6,30,226,,,,,,,,,,,
CC(=O)O[C@@]1([C@@H]2/C(C)=C(/O)C(=O)C3=C(C)[C@@H](OC(=O)[C@H](O)[C@H](CC(C)C)NC(=O)OC(C)(C)C)C[C@@](O)([C@H]2OC(=O)c2cccc(N=[N+]=[N-])c2)C3(C)C)CO[C@@H]1CCO,3.63,2.17,21,0.9,19,4.1,23.4,10,97,20,5.2,96,503,,,
CC(=O)O[C@@]1([C@@H]2/C(C)=C(/O)C(=O)C3=C(C)[C@@H](OC(=O)[C@H](O)[C@H](CC(C)C)NC(=O)OC(C)(C)C)C[C@@](O)([C@H]2OC(=O)c2ccccc2)C3(C)C)CO[C@@H]1CCO,3.2,0.132,10,3.3,33,4.3,207,15,38.7,15,6.6,893,255,,,
COc1cccc(C(=O)O[C@H]2[C@H]([C@]3(OC(C)=O)CO[C@@H]3CCO)/C(C)=C(/O)C(=O)C3=C(C)[C@@H](OC(=O)[C@H](O)[C@H](CC(C)C)NC(=O)OC(C)(C)C)C[C@]2(O)C3(C)C)c1,16.6,1.28,33.6,2.1,72,5.1,279,25,1172,80,2.9,1420,3400,,,
CC(=O)O[C@@]1([C@@H]2/C(C)=C(/O)C(=O)C3=C(C)[C@@H](OC(=O)[C@H](O)[C@@H](NC(=O)c4ccccc4)c4ccccc4)C[C@@](O)([C@H]2OC(=O)c2cccc(N=[N+]=[N-])c2)C3(C)C)CO[C@@H]1CCO,3.82,1.18,209,1,209,1.6,,20,1000,55,5.1,> 5000,5100,,,
CO/C1=C(\C)[C@@H]([C@]2(OC(C)=O)CO[C@@H]2CCO)[C@H](OC(=O)c2ccccc2)[C@]2(O)C[C@H](OC(=O)[C@H](O)[C@@H](NC(=O)c3ccccc3)c3ccccc3)C(C)=C(C1=O)C2(C)C,,,12.3,312,3840,,,,,,,,,,,
CC(=O)O[C@@]12CO[C@@H]1CCOC/C=C/CO/C1=C(\C)[C@@H]2[C@H](OC(=O)c2cccc(N=[N+]=[N-])c2)[C@]2(O)C[C@H](OC(=O)[C@H](O)[C@@H](NC(=O)c3ccccc3)c3ccccc3)C(C)=C(C1=O)C2(C)C,2.34,1.15,64,0.7,45,2.8,11.4,15,6.2,25,15,32,94,,,
CC(=O)O[C@@]12CO[C@@H]1CCOCCCCCO/C1=C(\C)[C@@H]2[C@H](OC(=O)c2ccccc2)[C@]2(O)C[C@H](OC(=O)[C@H](O)[C@@H](NC(=O)c3ccccc3)c3ccccc3)C(C)=C(C1=O)C2(C)C,,1.3,6,3.3,13.3 to 20,25.4,55,,,,,1400,,2 - 3,1.5,5.2
CC(=O)O[C@@]12CO[C@@H]1CCOCCCCCCO/C1=C(\C)[C@@H]2[C@H](OC(=O)c2ccccc2)[C@]2(O)C[C@H](OC(=O)[C@H](O)[C@@H](NC(=O)c3ccccc3)c3ccccc3)C(C)=C(C1=O)C2(C)C,,0.61,5.3,22,118,,,,,,,,,,,
CC(=O)O[C@H]1C(=O)[C@@]2(C)[C@H]([C@H](OC(=O)c3ccccc3)[C@]3(O)C[C@H](OC(=O)[C@H](O)[C@@H](NC(=O)c4ccccc4)c4ccccc4)C(C)=C1C3(C)C)[C@]1(OC(C)=O)CO[C@@H]1C[C@@H]2O [PACLITAXEL],5.36,,19.6 - 31.8,1.1 to 1.3,19.7 to 34,1.07 to 6,759 - 1198,15,5157,35,1.9,1280 to 4550,9800,,4,9
CC(=O)O[C@@]1([C@@H]2/C(C)=C(/O)C(=O)C3=C(C)[C@@H](OC(=O)[C@H](O)[C@@H](NC(=O)c4ccccc4)c4ccccc4)C[C@@](O)([C@H]2OC(=O)c2ccccc2)C3(C)C)CO[C@@H]1CCO,,0.1,15.6,192,2980,282,>35.4,,,,,> 10000,,,,

# More lines, main results first:
Unassembled tubulin concentration (Bos taurus [4]) [µM],fold change (FC) (Bos taurus [7]),SMILES,Ratio IC50 [1],IC50 (HeLa [2]) [nM],IC50 [3] [nM],IC50 (A2780) [nM],Ratio IC50 [5],Activity [6] [nM],Ratio IC50 [8],Activity (HeLa [9]) [nM],IC50 (KB) [nM],IC50 [10] [nM],IC50 (KB-V1) [nM],Ratio IC50 [11],Ratio IC50 (HeLa [12]),IC50 [13] [nM]
,0.96,CC(=O)O[C@@]12CO[C@@H]1CCOC/C=C\CCO/C1=C(\C)[C@@H]2[C@H](OC(=O)c2ccccc2)[C@]2(O)C[C@H](OC(=O)[C@H](O)[C@@H](NC(=O)c3ccccc3)c3ccccc3)C(C)=C(C1=O)C2(C)C,5.1,6.7,34,25.1,87.4,,,,,2190,,,,
,0.17,CC(=O)O[C@@]12CO[C@@H]1CCOC/C=C/CCCO/C1=C(\C)[C@@H]2[C@H](OC(=O)c2ccccc2)[C@]2(O)C[C@H](OC(=O)[C@H](O)[C@@H](NC(=O)c3ccccc3)c3ccccc3)C(C)=C(C1=O)C2(C)C,2.2,126,282,,,,,,,,,,,
,0.89,CC(=O)O[C@@]12CO[C@@H]1CCOCCCCO/C1=C(\C)[C@@H]2[C@H](OC(=O)c2ccccc2)[C@]2(O)C[C@H](OC(=O)[C@H](O)[C@@H](NC(=O)c3ccccc3)c3ccccc3)C(C)=C(C1=O)C2(C)C,6.9,8,58,,,,,,,,,,,
,0.96,CC(=O)O[C@@]12CO[C@@H]1CCOC/C=C/CO/C1=C(\C)[C@@H]2[C@H](OC(=O)c2ccccc2)[C@]2(O)C[C@H](OC(=O)[C@H](O)[C@@H](NC(=O)c3ccccc3)c3ccccc3)C(C)=C(C1=O)C2(C)C,7.5,3.5,26,22.3,77.1,,,,,1720,,,,
,0.23,CC(=O)O[C@@]12CO[C@@H]1CCOC/C=C/CCO/C1=C(\C)[C@@H]2[C@H](OC(=O)c2ccccc2)[C@]2(O)C[C@H](OC(=O)[C@H](O)[C@@H](NC(=O)c3ccccc3)c3ccccc3)C(C)=C(C1=O)C2(C)C,5.7,27.9,158,,,,,,,,,,,
